From patent publication US20120322829A1, “USE OF A DIPYRIDYL COMPOUND FOR TREATING ROSACEA” (GALDERMA RESEARCH & DEVELOPMENT, priority 2009, published 2012)

Key:
Format in all cases: biochemical
MMP-2 = target: T1, MMP-2 (Homo sapiens, UniProt P08253); assay: MMP-2 activity, fluorometric detection of reaction product; conditions: 10 μM; human recombinant protein; remaining activity
T1 sequence (P08253 110-660): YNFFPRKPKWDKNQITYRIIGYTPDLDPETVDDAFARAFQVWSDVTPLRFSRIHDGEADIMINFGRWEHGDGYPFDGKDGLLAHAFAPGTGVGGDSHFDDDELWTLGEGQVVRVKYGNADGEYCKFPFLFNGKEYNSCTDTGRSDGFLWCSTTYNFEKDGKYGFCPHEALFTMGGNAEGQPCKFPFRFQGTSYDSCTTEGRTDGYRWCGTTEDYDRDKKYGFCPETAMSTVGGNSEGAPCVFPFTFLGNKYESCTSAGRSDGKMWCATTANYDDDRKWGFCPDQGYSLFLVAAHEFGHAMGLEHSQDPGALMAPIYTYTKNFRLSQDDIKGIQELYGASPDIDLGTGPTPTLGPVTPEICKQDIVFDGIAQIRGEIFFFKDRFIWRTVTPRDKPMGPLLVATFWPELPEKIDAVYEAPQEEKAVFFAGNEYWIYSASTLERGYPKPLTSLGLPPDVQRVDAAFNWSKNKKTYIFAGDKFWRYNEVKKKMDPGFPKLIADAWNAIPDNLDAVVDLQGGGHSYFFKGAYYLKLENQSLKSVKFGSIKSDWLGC
Procedure: (§1) The activity of MMPs of MMP-1, MMP-2, MMP-9, MMP-12, MMP-13 and TACE was measured using human recombinant proteins. The activity of MMP-8 was measured in human neutrophiles. After incubation with the corresponding substrate, the reaction product of each MMP was detected by fluorometry. The results are expressed as specific control activity percentages ((specific activity measured/specific control activity)×100) obtained in the presence of the compounds tested.

[1] = target: TACE (TNF-alpha converting enzyme) (Homo sapiens, UniProt P78536); assay: TACE activity, fluorometric detection of reaction product; conditions: 10 μM; human recombinant protein; remaining activity
Procedure: as §1

MMP-1 = target: T2, MMP-1 (Homo sapiens, UniProt P03956); assay: MMP-1 activity, fluorometric detection of reaction product; conditions: 10 μM; human recombinant protein; remaining activity
T2 sequence (P03956 100-469): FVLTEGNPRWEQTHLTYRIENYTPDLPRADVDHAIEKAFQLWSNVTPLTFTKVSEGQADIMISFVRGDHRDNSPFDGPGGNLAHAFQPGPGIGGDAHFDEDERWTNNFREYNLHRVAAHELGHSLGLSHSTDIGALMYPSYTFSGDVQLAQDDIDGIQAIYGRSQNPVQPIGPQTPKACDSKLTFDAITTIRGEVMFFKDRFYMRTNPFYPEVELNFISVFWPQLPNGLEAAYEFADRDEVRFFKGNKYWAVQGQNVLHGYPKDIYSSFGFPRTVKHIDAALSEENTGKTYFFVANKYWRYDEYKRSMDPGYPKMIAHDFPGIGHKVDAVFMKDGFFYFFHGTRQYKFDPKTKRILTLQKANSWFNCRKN
Procedure: as §1

MMP-9 = MMP-9 (Homo sapiens, UniProt P14780); assay: MMP-9 activity, fluorometric detection of reaction product; conditions: 10 μM; human recombinant protein; remaining activity
Procedure: as §1

MMP-8 = target: T3, MMP-8 (Homo sapiens, UniProt P22894); assay: MMP-8 activity measured in human neutrophiles, fluorometry; conditions: 10 μM, remaining activity
T3 construct: endogenous in cells; host or cells: human neutrophils
Procedure: as §1

MMP-12 = MMP-12 (Homo sapiens, UniProt P39900); assay: MMP-12 activity, fluorometric detection of reaction product; conditions: 10 μM; human recombinant protein; remaining activity
Procedure: as §1

MMP-13 = MMP-13 (Homo sapiens, UniProt P45452); assay: MMP-13 activity, fluorometric detection of reaction product; conditions: 10 μM; human recombinant protein; remaining activity
Procedure: as §1

MMP-14 = MMP-14 (Homo sapiens, UniProt P50281); assay: MMP-14 activity; conditions: 10 μM; remaining activity

Sequence of MMP-9 (P14780 94-707): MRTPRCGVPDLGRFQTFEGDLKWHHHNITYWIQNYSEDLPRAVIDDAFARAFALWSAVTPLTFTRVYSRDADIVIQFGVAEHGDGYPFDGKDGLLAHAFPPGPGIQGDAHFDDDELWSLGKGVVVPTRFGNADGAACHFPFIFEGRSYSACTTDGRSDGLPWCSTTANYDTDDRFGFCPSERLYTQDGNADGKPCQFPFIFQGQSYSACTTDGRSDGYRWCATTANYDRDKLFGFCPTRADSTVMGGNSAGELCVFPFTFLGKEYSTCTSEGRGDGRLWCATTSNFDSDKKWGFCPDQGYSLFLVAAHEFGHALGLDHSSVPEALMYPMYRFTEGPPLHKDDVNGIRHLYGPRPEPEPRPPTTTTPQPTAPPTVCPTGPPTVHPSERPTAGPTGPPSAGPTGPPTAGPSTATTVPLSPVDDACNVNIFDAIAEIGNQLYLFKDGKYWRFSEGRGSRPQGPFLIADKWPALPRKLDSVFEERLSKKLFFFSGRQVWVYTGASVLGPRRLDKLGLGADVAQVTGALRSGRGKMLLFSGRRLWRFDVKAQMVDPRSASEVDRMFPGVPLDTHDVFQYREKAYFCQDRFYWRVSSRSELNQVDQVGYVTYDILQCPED
T3 sequence (P22894 101-467): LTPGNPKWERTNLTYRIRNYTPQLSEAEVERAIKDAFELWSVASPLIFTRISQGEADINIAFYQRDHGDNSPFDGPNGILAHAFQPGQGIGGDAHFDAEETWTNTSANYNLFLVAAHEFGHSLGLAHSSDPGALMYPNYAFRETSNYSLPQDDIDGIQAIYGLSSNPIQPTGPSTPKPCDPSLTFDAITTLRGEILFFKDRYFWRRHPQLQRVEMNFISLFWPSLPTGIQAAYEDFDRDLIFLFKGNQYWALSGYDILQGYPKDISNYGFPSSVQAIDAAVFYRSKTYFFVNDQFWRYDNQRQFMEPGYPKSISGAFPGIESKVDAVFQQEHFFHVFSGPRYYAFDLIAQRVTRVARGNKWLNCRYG
Sequence of MMP-12 (P39900 106-470): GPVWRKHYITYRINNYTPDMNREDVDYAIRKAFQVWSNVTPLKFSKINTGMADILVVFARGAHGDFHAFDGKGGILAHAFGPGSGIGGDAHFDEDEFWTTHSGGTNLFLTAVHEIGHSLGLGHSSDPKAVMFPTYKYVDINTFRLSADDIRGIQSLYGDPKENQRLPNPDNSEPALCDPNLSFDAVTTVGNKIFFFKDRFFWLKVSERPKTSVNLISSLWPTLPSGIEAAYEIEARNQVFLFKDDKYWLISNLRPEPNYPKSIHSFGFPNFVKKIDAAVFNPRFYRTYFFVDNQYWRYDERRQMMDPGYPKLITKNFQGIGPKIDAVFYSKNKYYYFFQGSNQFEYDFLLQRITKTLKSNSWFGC
Sequence of TACE (TNF-alpha converting enzyme) (P78536 215-824): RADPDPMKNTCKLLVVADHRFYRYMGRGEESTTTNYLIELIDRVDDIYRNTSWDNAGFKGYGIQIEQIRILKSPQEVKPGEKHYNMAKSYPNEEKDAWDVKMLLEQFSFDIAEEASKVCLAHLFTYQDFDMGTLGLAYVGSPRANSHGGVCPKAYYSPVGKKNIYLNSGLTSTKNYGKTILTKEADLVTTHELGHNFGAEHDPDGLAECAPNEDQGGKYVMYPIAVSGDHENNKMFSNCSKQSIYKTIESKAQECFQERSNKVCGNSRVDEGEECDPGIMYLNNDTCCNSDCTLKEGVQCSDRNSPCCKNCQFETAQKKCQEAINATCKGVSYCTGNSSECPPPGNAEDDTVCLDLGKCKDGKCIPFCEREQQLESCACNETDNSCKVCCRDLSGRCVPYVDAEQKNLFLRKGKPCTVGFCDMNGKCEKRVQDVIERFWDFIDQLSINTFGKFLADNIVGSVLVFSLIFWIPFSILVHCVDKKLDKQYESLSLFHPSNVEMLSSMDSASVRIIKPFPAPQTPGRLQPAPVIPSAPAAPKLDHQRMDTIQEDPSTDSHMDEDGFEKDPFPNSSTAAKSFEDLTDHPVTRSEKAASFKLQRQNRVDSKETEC

Row | Structure (SMILES) | MMP activity (% of control values ± SD), MMP-2 (MMP-2) | MMP activity (% of control values ± SD), TACE [1] | MMP activity (% of control values ± SD), MMP-1 (MMP-1) | MMP activity (% of control values ± SD), MMP-9 (MMP-9) | MMP activity (% of control values ± SD), MMP-8 (MMP-8) | MMP activity (% of control values ± SD), MMP-12 (MMP-12) | MMP activity (% of control values ± SD), MMP-13 (MMP-13) | MMP activity (% of control values ± SD), MMP-14 (MMP-14)
1 | Cc1ccc(-c2ccc(C)cn2)nc1 [5,5′-dimethyl-2,2′-dipyridyl] | 86.4 ± 2.2 % of control values | 100.8 ± 2.1 % of control values | 96.1 ± 0.3 % of control values | 86.0 ± 3.4 % of control values | 88.3 ± 6.7 % of control values | 93.4 ± 0.4 % of control values | 89.4 ± 1.2 % of control values | 90.2 ± 4.1 % of control values
2 | Cc1ccnc(-c2cc(C)ccn2)c1 [4,4′-dimethyl-2,2′-dipyridyl] | 100.8 ± 6.0 % of control values | 106.4 ± 1.2 % of control values | 94.3 ± 0.1 % of control values | 88.5 ± 3.4 % of control values | 86.5 ± 7.4 % of control values | 96.3 ± 1.0 % of control values | 90.0 ± 4.1 % of control values | 90.8 ± 4.7 % of control values
3 | Cc1cccc(-c2cccc(C)n2)n1 [6,6′-dimethyl-2,2′-dipyridyl] | 95.9 ± 7.5 % of control values | 100.3 ± 0.2 % of control values | 98.8 ± 0.7 % of control values | 101.0 ± 3.3 % of control values | 95.0 ± 6.5 % of control values | 96.3 ± 1.0 % of control values | 96.2 ± 2.6 % of control values | 84.3 ± 3.0 % of control values
